Patent publication US20030216257A1, “1-aryl-4-alkyl halide-2(1h)-pyridones and their use as herbicides” (priority 2000, published 2003)

Legend:
Experiment in all cases: Greenhouse experiments, herbicidal action (pre-/post-emergence treatment)
Assay type in all cases: in vivo
Settings in all cases: post-emergence rate 0.0313 and 0.0156 kg of a.S./ha, scale 0 to 100
[1] = test system: GALAP (catchweed bedstraw)
Excerpt: (§1) The culture containers used were plastic pots with loamy sand containing approximately 3.0% of humus as the substrate. The seeds of the test plants were sown separately for each species.
(§2) For the pre-emergence treatment, the active compounds, which had been suspended or emulsified in water, were applied directly after seeding by means of finely distributing nozzles. The containers were irrigated gently to promote germination and growth and subsequently covered with transparent plastic hoods until the plants had taken root. This cover causes uniform germination of the test plants unless this was not adversely affected by the active compounds.
(§3) For the post-emergence treatment, the test plants were initially grown to a height of 3 to 15 cm, depending on the habit, and then treated with the active compounds which had been suspended or emulsified in water. To this end, the test plants were either sown directly and cultivated in the same containers, or they were initially cultivated separately as seedlings and transplanted into the test containers a few days prior to the treatment. The application rate for the post-emergence treatment was 0.0313 and 0.0156 kg of a. S./ha.
(§4) The plants were kept at temperatures of 10-25° C. and 20-35° C., depending on the species. The test period extended over 2 to 4 weeks. During this time, the plants were tended, and their reaction to the individual treatments was evaluated.
(§5) Evaluation was carried out using a scale from 0 to 100. 100 means no emergence of the plants, or complete destruction of at least the above-ground parts, and 0 means no damage or normal course of growth.
(§6) The plants used in the greenhouse experiments were of the following species: […]

AMARE (redroot pigweed) = test system: AMARE (redroot pigweed)
Excerpt: as §1, §2, §3, §4, §5, §6

COMBE (dayflower) = test system: COMBE (dayflower)
Excerpt: as §1, §2, §3, §4, §5, §6

SETFA (giant foxtail) = test system: SETFA (giant foxtail)
Excerpt: as §1, §2, §3, §4, §5, §6

ABUTH (velvet leaf) = test system: ABUTH (velvet leaf)
Excerpt: as §1, §2, §3, §4, §5, §6

Measured: herbicidal activity against harmful plant

CC(C)OC(=O)c1cc(-n2c(Cl)cc(C(F)(F)F)cc2=O)c(F)cc1Cl [Example 1, Isopropyl 2-Chloro-5-[2-chloro-6-oxo-4-(trifluoromethyl)-1-(6H)-pyridinyl]-4-fluorobenzoate]
very good activity: all assays above
